Laboratory results as given in ChEMBL document CHEMBL5550126, “Identification of naphthalimide-derivatives as novel PBD-targeted polo-like kinase 1 inhibitors with efficacy in drug-resistant lung cancer cells” (Eur J Med Chem, 2024).
Activity calls are given as the source filed them.

Legend:
[1] = target: T1, Serine/threonine-protein kinase PLK1 (Homo sapiens, UniProt P53350); assay: Binding affinity to PLK1 in human A549/DDP cell lysates assessed as thermal stabilization at 20 uM at 44 to 64 degreeC incubated for 2 hrs by CETSA; type: subcellular; details: Lysate
T1 sequence (P53350 whole entry): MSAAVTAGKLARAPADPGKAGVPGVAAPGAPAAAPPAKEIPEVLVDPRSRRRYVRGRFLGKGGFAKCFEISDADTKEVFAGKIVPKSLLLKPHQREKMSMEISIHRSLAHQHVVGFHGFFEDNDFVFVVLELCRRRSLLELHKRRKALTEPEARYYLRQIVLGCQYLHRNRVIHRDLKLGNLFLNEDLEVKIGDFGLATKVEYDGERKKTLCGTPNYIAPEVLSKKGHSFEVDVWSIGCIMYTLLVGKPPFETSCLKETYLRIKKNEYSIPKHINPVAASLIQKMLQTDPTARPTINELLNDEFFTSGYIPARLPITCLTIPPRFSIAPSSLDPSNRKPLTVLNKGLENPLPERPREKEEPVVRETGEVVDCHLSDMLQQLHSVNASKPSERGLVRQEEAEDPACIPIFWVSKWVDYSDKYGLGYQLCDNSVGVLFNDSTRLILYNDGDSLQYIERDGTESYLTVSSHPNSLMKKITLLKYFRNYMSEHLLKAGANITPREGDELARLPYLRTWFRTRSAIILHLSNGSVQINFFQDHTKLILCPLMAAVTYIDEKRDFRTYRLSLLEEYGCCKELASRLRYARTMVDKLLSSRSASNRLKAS

[2] = Toxicity in male BALB/c nude mouse xenografted with human A549/DDP cells assessed as liver damage at 30 to 50 mg/kg, ip administered every 2 days for 32 days by H and E staining based analysis; type: organism-based, A549/CDDP; details: in vivo, 768 h, dose 30-50 mg/kg, time 32 day
[3] = target: T1, Serine/threonine-protein kinase PLK1; assay: Binding affinity to recombinant PLK1 (unknown origin) assessed as signal attenuation at 200 uM by NMR analysis
[4] = Toxicity in male BALB/c nude mouse xenografted with human gefitinib resistant NCI-H1975 cells assessed as heart damage at 30 mg/kg, po administered every 2 days for 20 days and measured 3 times a week by H and E staining based analysis; type: organism-based; details: in vivo, 480 h, time 20 day
A549/CDDP [5] = assay: Antitumor activity against human A549/DDP cells assessed as male BALB/c nude mouse assessed as median survival time at 50 mg/kg, ip administered every 2 days for 32 days (reference value: 38 days); type: functional; details: time 32 day
A549/CDDP [6] = assay: Antitumor activity against human A549/DDP cells assessed as male BALB/c nude mouse assessed as increase in survival time at 30 to 50 mg/kg, ip administered every 2 days for 32 days; type: functional, organism-based; details: dose 30-50 mg/kg, time 32.0 day
A549/CDDP [7] = assay: Antitumor activity against human A549/DDP cells assessed as male BALB/c nude mouse assessed as reduction in tumor growth at 30 to 50 mg/kg, ip administered every 2 days for 32 days and measured 3 times a week; type: functional, organism-based; details: dose 30-50 mg/kg, time 32.0 day
[8] = Antiproliferative activity against human gefitinib resistant NCI-H1975 cells assessed as inhibition of cell growth incubated for 48 hrs by crystal violet staining based analysis; type: functional
[9] = GSH reactivity in human A549 cells assessed as increase in fluorescence intensity measured after 48 hrs; type: ADME, cell-based; details: a549, 48 h, dose 0-9 µM
A549/CDDP [10] = assay: Disruption of redox homeostasis in human A549/DDP cells assessed as reduction in GSH level at 0 to 9 uM measured after 48 hrs; type: functional, cell-based; details: dose 0-9 µM
[11] = target: T1, Serine/threonine-protein kinase PLK1; assay: Binding affinity to PLK1 in human A549/DDP intact cells assessed as thermal stabilization at 3 uM at 44 to 64 degreeC incubated for 2 hrs by CETSA; type: cell-based
MGC-803 = assay: Anticancer activity against human MGC-803 cells assessed as inhibition of cell growth incubated for 48 hrs by crystal violet staining based analysis; type: functional; details: MGC-803, 48 h
[12] = Toxicity in male BALB/c nude mouse xenografted with human gefitinib resistant NCI-H1975 cells assessed as liver damage at 30 mg/kg, po administered every 2 days for 20 days and measured 3 times a week by H and E staining based analysis; type: organism-based; details: in vivo, 480 h, time 20 day
[13] = GSH reactivity of compound in PBS assessed as increase in fluorogenic response at 0 to 800 uM measured after 60 mins by fluorescence spectrophotometer; type: physicochemical; details: buffer, 1 h, dose 0-800 µM
[14] = Toxicity in male BALB/c nude mouse xenografted with human A549/DDP cells assessed as lung damage at 30 to 50 mg/kg, ip administered every 2 days for 32 days by H and E staining based analysis; type: organism-based, A549/CDDP; details: in vivo, 768 h, dose 30-50 mg/kg, time 32 day
A549/CDDP [15] = assay: Effect on cyclin A2 protein expression in human A549/DDP cells assessed as effect on protein abundance at 0 to 6 uM measured after 48 hrs by Western blot analysis; type: functional, cell-based; details: dose 0-6 µM
A549/CDDP [16] = assay: Disruption of redox homeostasis in human A549/DDP cells assessed as increase in ROS level at 0 to 9 uM measured after 48 hrs; type: functional, cell-based; details: dose 0-9 µM
A549 [17] = assay: Induction of mitotic catastrophe in human A549 cells assessed as appearance of multinucleated cells during mitosis at 1.5 uM measured after 48 hrs by immunostaining based laser confocal microscopic analysis; type: functional, cell-based
[18] = Toxicity in male BALB/c nude mouse xenografted with human A549/DDP cells assessed as change in lung index at 30 to 50 mg/kg, ip administered every 2 days for 32 days; type: organism-based, A549/CDDP; details: in vivo, 768 h, dose 30-50 mg/kg, time 32 day
[19] = target: T1, Serine/threonine-protein kinase PLK1; assay: Binding affinity to FLAG-tagged PLK1 PBD region (unknown origin) transfected in human A549 cells at 10 uM incubated for 1 hr by coimmunoprecipitation-MS analysis; type: cell-based
A549/CDDP [20] = assay: Antitumor activity against human A549/DDP cells assessed as male BALB/c nude mouse assessed as tumor regression at 50 mg/kg, ip administered every 2 days for 32 days and measured 3 times a week; type: functional, organism-based; details: time 32.0 day
[21] = Toxicity in male BALB/c nude mouse xenografted with human A549/DDP cells assessed as change in liver index at 30 to 50 mg/kg, ip administered every 2 days for 32 days; type: organism-based, A549/CDDP; details: in vivo, 768 h, dose 30-50 mg/kg, time 32 day
A549/CDDP [22] = assay: Antitumor activity against human A549/DDP cells assessed as male BALB/c nude mouse assessed as reduction in cell proliferation by measuring reduction in […] positive cells in tumor at 30 to 50 mg/kg, ip administered every 2 days for 32 days by immunohistochemistry; type: functional, organism-based; details: dose 30-50 mg/kg, time 32.0 day
A549 [23] = assay: Induction of mitotic catastrophe in human A549 cells assessed as downregulation of CDC25 protein expression at 1.5 to 6 uM measured after 48 hrs by Western blot analysis; type: functional, cell-based; details: dose 1.5-6 µM
A549/CDDP [24] = assay: Effect on p21 protein expression in human A549/DDP cells assessed as effect on protein abundance at 0 to 6 uM measured after 48 hrs by Western blot analysis; type: functional, cell-based; details: dose 0-6 µM
[25] = Toxicity in male BALB/c nude mouse xenografted with human A549/DDP cells assessed as reduction in body weight at 30 to 50 mg/kg, ip administered every 2 days for 32 days and measured 3 times a week; type: organism-based, A549/CDDP; details: in vivo, 768 h, dose 30-50 mg/kg, time 32 day
[26] = Antitumor activity against human gefitinib resistant NCI-H1975 cells xenografted in male BALB/c nude mouse assessed as inhibition of tumor growth at 30 mg/kg, po administered every 2 days for 20 days and measured 3 times a week relative to control; type: functional; details: gefitinib resistant NCI-H1975 cell, 480 h, time 20 day, read-out: TGI
A549/CDDP [27] = assay: Effect on c-Myc protein expression in human A549/DDP cells assessed as effect on protein abundance at 0 to 6 uM measured after 48 hrs by Western blot analysis; type: functional, cell-based; details: dose 0-6 µM
NCI-H460 = assay: Anticancer activity against human NCI-H460 cells assessed as inhibition of cell growth incubated for 48 hrs by crystal violet staining based analysis; type: functional; details: NCI-H460, 48 h
A549/CDDP [28] = assay: Anticancer activity against human A549/DDP cells assessed as inhibition of cell growth incubated for 48 hrs by crystal violet staining based analysis; type: functional
A549/CDDP [29] = assay: Effect on CDK2 protein expression in human A549/DDP cells assessed as effect on protein abundance at 0 to 6 uM measured after 48 hrs by Western blot analysis; type: functional, cell-based; details: dose 0-6 µM
[30] = target: T1, Serine/threonine-protein kinase PLK1; assay: Binding affinity to FLAG-tagged PLK1 kinase region (unknown origin) transfected in human A549 cells at 10 uM incubated for 1 hr by coimmunoprecipitation-MS analysis; type: cell-based
A549 [31] = assay: Induction of cell cycle arrest at G2/M phase in human A549 cells at 0 to 15 uM measured after 48 hrs by RNase A/PI staining based flow cytometry analysis; type: functional; details: dose 0-15 µM

CN(C)CCN1C(=O)c2cccc3c(S(=O)(=O)NCc4ccc(F)cc4)ccc(c23)C1=O
Metabolite_Detected: Drug metabolism [9] | Drug metabolism [13]
2310 nM: IC50 (NCI-H460)
3200 nM: IC50 (MGC-803)
7830 nM: IC50 [8]
Non-Toxic: Activity [2] | Activity [4] | Activity [12] | Activity [14] | Activity [18] | Activity [21] | Activity [25]
2650 nM: IC50 (A549/CDDP [28])
44%: inhibition in vivo at 30 mg/kg [26]
active: Activity [1] | Activity [3] | Activity (A549/CDDP [6]) | Activity (A549/CDDP [7]) | Activity (A549/CDDP [10]) | Activity [11] | Activity (A549/CDDP [15]) | Activity (A549/CDDP [16]) | Activity (A549 [17]) | Activity [19] | Activity (A549/CDDP [20]) | Activity (A549/CDDP [22]) | Activity (A549 [23]) | Activity (A549/CDDP [24]) | Activity (A549/CDDP [27]) | Activity (A549/CDDP [29]) | Activity (A549 [31])
62 days: MSD (A549/CDDP [5])
inactive: Activity [30]
